Measured values: patent US20030166537A1, “Use of GDNF for treating corneal defects” (Biopharm Gesellschaft Zur Biotechnologischen Entwicklung …, priority 1999, published 2003)

Key:
[1] = test system: ERK1, ERK2, JNK1 and JNK2; test: western blot of phosphorylated MAP kinases in cultured human corneal stromal keratocytes; type: cell-based; conditions: for phosphorylation of ERK1 and ERK2: 200 ng/ml factor vs control; for phosphorylation of JNK1: vs serum-free medium
Protocol: (§1) In order to evaluate the effect of GDNF and other neurotrophic factors on the activation of signal transduction pathways in cultured corneal epithelial and stromal keratocytes, western blots were performed for detecting an accumulation of phosphorylated MAP kinases ERK and JNK in the presence of GDNF, NGF and BDNF. Human stromal keratocytes were cultured in RPMI 1640 medium containing L-glutamine (glutaMAX) or DMEM with 10% FBS for one day and starved in serum-free medium for another day. Cultures were then washed with PBS and incubated in serum-free DMEM without additives or with recombinant human GDNF (200 ng/ml), recombinant human NGF (200 ng/ml) and recombinant human BDNF (200 ng/ml) (all obtained from R & D Systems, Mineapolis, Minn., USA) for 30 min. Some cultures were incubated with an inhibitor of MAP kinases (PD 98059, Torcris Cookson Ballwin, Mo., USA) at 100 μM for 1 h prior to exposure to neurotrophines. After washing with PBS, culture cells were solubilized in lysis buffer containing 50 mM Tris-Cl (pH 8.0), 150 mM NaCl, 0.02% sodium azide, 100 μg/ml PMSF, 1% Triton X-100 and a mixture of several protein inhibitors (Complete®, Boehringer Mannheim) (one tablet/50 ml buffer). 50 μg total protein per lane was fractionated by a 10% STS-MOPS NUPAGE Bis-tris gel (NOVEX, San Diego, Calif., USA) and blotted onto nitrocellulose membrane. Membranes were stained with diluted polyclonal antibodies against ERK1, ERK2, JNK1 and JNK2 (Santa Cruz Biotechnology, Santa Cruz, Calif., USA). Also a polyclonal antibody was used which recognizes the […] form of either ERK1 and ERK2 which was raised against the catalytic core of the phosphorylated threonine residue 183 and tyrosine residue 185 of mammalian ERK2. Similarily, a polyclonal antibody recognizing the phosphorylated form of JNK1 and JNK2 was used (both from Promega). In the last step the membranes were visualized with the ECL western blot analysis system (Amersham).

[2] = test system: ERK1, ERK2, JNK1 and JNK2; test: western blot of phosphorylated MAP kinases in cultured human corneal epithelium; type: cell-based; conditions: for phosphorylation of ERK1 and ERK2: 200 ng/ml factor vs serum-free control medium; for phosphorylation of ERK1 and ERK2 / phosphorylation of JNK1/2: human epithelial cells; for phosphorylation of JNK1/2: vs control
Protocol: as §1

corneal epithelial cells = test: in vitro wound healing model with herbimycin A; type: cell-based; conditions: 10 μM Herbimycin A in presence of 250 ng/ml GDNF; 18 hours
Protocol: (§2) For in vitro wound healing assays primary corneal epithelial cells and cells from the corneal epithelial cell line were seeded at a density of 5×10^5 onto 60 mm plastic dishes with 2 mm grid (Sarstedt, Numbrecht, Germany) and cultured for 2 days until subconfluency. For experiments with artemin primary cultured rabbit corneal epithelial cells were used. These cells had been isolated with Dispase (1,2 U/ml) and trypsin/EDTA. Rabbit cells had been cultured in medium 500 with additives (Cascade Biologies).
The cell layer was injured under the microscope by inducing several parallel scratches with a soft plastic cell scrubber (Falcon, Becton and Dickinson, Heidelberg, Germany). The tip of the scrubber was cut and measured about 1 mm and consequently the width of the scratch in the cell layer was also about 1 mm. Selected areas in the dishes were marked with a very fine marker pen and consecutive images were taken at different time points at 5×magnification under an inverted phase contrast microscope (Axiovert 25, Zeiss, Jena, Germany) equipped with a video camera. […] For each condition four representative areas were evaluated within three dishes. […] 18 hours later the mean diameter of the same scratch was calculated again and expressed in percent of the diameter at the beginning of the experiment. […]

Ret = target: T1, Ret (Homo sapiens, UniProt P07949); test: immuno-precipitation and western blot of tyrosine-phosphorylated Ret in cultured corneal epithelial cells; type: cell-based; conditions: cells pretreated with herbimycin A, then GDNF 10 minutes
T1 construct: The level of phosphorylated Ret (approximately 150 kD) in cultured corneal epithelial cells (control) was low prior to addition of GDNF; endogenous in cells; host or cells: SV40-transformed human corneal epithelial cell line (Araki-Sasaki et al., 1995)

[3] = test system: FAK, Pyk2, cRaf, MEK1, Erk 1 and 2, Elk, RSK; test: western blot of phosphorylated intracellular signaling proteins in corneal epithelial cells; type: cell-based, human; conditions: preincubation with herbimycin A for two hours
Protocol: In order to investigate which protein kinase cascades are activated by GDNF and artemin, corneal epithelial cells from the cell line were seeded at a density of 5×10^5 cells/75 cm^2 and cultured in SHEM with 10% FBS for one day. Cultures were then washed with PBS and incubated in serum-free SHEM without additives or with GDNF (200 ng/ml) or with artemin (250 ng) for 10 to 40 minutes. After washing with PBS, cultured cells were solubilized in lysis buffer containing 50 mM Tris2Cl (pH8.0), 150 mM NaCl, 0.02% sodium azide, 100 μg/ml phenylmethylsulfonyl fluoride, 1 mM Na3VO4, 1% Triton X-100 and a mixture of several protease inhibitors [complete™, Boehringer Mannheim (1 tablet/30 ml buffer)]. 80 μg total protein per lane was fractionated by NuPAGE 10% SDS-MOPS-Bis-Tris gel or NuPAGE 3-8% Tris-acetate gel (all from NOVEX, San Diego, Calif.) and blotted onto a nitrocellulose membrane. Phosphorylated proteins were detected with phospho-specific antibodies and visualized with the ECL western blot analysis system (Amersham). Antibodies against phospho-Raf(ser259), phospho-MEK1/2(ser217/221), phospho-MAPK (Erk1/2) (thr202/tyr204), phospho-p90 ribosomal S6 kinase (RSK) (ser381) and phospho-Elk-1(ser383) were obtained from New England Biolabs (Beverly, Mass.). Antibody against phospho-FAK (tyr397/tyr407/tyr576/tyr577/tyr861/tyr925) and phospho-Pyk2 (tyr402/tyr579/tyr/580/tyr881) were purchased from Biosource (Camarillo, Calif., USA). A monoclonal antibody against phospho-tyrosine came from Sigma (Deisenhofen, Germany).

[4] = test system: primary rabbit corneal epithelial cells; test: single cell clonal growth assay (colony formation, clonal proliferation); type: cell-based; conditions: 10 ng/ml; day 6; control 40±20
Description: In order to evaluate the effect of GDNF on corneal proliferation, recombinant human GDNF was used (R&D, Minneapolis, Minn., USA). For the evaluation of the effect on corneal epithelial proliferaton a single cell clonal growth model was utilized which allows to determine the effect of the given growth factor on both colony formation as well as clonal expansion (Kruse et al., 1991). New Zealand white rabbits were housed and treated according to the ARVO Resolution of Animals in Research and under observation of German Federal Laws and the laws of the State of Baden-Württemberg. Prior to sacrifice with an intravenous overdose of pentobarbital, they received an intramuscular injection of xylazine hydrochloride and ketamine hydrochloride. The details of the clonal growth assay are described in Kruse et al. (1991). 5000 viable cells were seeded in each 16 mm dish in serum-free medium MCDB 151 with a supplement (S) of insulin (5 μg/ml), transferrin (5 μg/ml), selenium (5 ng/ml) and hydrocortisone (5 μg/ml) (all from Sigma, Deisenhofen, Germany). […] This quantification was facilitated by the use of dishes which contained a grit on the bottom which is roughly 2 mm wide (from Sarstedt, Newton, N.C., USA). For data collection the entire surface area of four randomly selected dishes for each condition was screened. Furthermore, the number of cells per colony was determined in 75 randomly selected colonies for each condition. Furthermore, the total number of cells/dish was calculated in order to carry out an evaluation for artemin. In order to stimulate the cellular proliferation, GDNF (50 or 200 ng/ml) or artemin (250 ng/ml) was added to the medium. In order to estimate the rate of proliferation after 12 days (a time when neighbouring colonies started to grow into each other and, therefore, prevented numerical quantification) dishes were fixed in −20° C. methanol and stained with methylene blue.
All experiments examining the effect of GDNF on corneal proliferation were performed in triplicate with cells from different donors. The influence of growth factor on colony formation, colony size and cell number was studied using one-way analysis of variance. […] Student's t-test was employed to determine which differences were significant after analysis of variance.

[5] = test system: corneal epithelial cells from the SV40 transformed cell line; test: in vitro wound healing assay (scratch wound), cell line; type: cell-based, human; conditions: 18 h, control 20%±4.5
Protocol: as §2
(§3) The cell layer was injured under the microscope by inducing several parallel scratches with a soft plastic cell scrubber (Falcon, Becton and Dickinson, Heidelberg, Germany). The tip of the scrubber was cut and measured about 1 mm and consequently the width of the scratch in the cell layer was also about 1 mm. Selected areas in the dishes were marked with a very fine marker pen and consecutive images were taken at different time points at 5×magnification under an inverted phase contrast microscope (Axiovert 25, Zeiss, Jena, Germany) equipped with a video camera. Following the experimental injury dishes were incubated in SHEM medium either containing no growth factors (control) or containing either GDNF (250 ng/ml) (recombinant human GDNF expressed in E. coli), NGF (250 ng/ml) (Boehringer Mannheim, Germany) or EGF ([…]). For experiments investigating artemin cells were cultured in medium 500 without additives and 250 ng artemin was added. For each condition four representative areas were evaluated within three dishes. The mean diameter of the scratch in each representative area was set as 100% at the beginning of the experiment. 18 hours later the mean diameter of the same scratch was calculated again and expressed in percent of the diameter at the beginning of the experiment.

[6] = test system: primary human corneal epithelial cells; test: in vitro wound healing assay (scratch wound), primary cells; type: cell-based; conditions: 18 h, control less than 10%
Protocol: as §2, §3

[7] = test system: primary rabbit corneal epithelial cells; test: in vitro wound healing assay (scratch wound), artemin; type: cell-based; conditions: 10 ng/ml; within 6 h; vs control
Protocol: as §2
The cell layer was injured under the microscope by inducing several parallel scratches with a soft plastic cell scrubber (Falcon, Becton and Dickinson, Heidelberg, Germany). The tip of the scrubber was cut and measured about 1 mm and consequently the width of the scratch in the cell layer was also about 1 mm. Selected areas in the dishes were marked with a very fine marker pen and consecutive images were taken at different time points at 5×magnification under an inverted phase contrast microscope (Axiovert 25, Zeiss, Jena, Germany) equipped with a video camera. […] For each condition four representative areas were evaluated within three dishes. […] 18 hours later the mean diameter of the same scratch was calculated again and expressed in percent of the diameter at the beginning of the experiment.

T1 sequence (P07949 29-1114): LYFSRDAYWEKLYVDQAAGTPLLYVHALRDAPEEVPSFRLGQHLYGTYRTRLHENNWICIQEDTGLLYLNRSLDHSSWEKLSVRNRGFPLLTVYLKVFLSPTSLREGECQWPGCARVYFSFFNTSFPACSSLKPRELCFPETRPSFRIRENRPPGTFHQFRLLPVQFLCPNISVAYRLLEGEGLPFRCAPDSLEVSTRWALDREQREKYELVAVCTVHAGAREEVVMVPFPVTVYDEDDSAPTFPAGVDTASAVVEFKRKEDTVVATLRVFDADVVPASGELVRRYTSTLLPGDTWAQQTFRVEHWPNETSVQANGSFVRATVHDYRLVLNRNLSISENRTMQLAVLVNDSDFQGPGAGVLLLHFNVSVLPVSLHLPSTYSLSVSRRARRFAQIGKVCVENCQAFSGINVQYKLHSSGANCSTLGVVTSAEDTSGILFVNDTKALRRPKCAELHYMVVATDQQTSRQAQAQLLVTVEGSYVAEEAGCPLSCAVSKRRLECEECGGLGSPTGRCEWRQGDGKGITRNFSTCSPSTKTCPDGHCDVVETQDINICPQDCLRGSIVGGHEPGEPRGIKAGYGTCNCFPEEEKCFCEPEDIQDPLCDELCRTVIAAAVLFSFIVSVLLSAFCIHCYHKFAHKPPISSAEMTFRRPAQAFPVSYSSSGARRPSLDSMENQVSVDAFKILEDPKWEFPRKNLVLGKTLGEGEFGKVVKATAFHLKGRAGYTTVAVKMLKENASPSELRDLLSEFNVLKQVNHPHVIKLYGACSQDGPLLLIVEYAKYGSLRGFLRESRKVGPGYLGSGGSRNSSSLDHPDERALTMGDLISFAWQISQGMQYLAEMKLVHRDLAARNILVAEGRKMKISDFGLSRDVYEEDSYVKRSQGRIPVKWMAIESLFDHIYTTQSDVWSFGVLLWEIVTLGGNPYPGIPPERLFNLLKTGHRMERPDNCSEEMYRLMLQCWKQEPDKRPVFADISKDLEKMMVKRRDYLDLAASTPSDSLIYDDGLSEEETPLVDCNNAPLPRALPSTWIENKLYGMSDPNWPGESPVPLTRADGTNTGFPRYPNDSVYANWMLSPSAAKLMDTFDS

COc1cccc(-c2cc(=O)c3ccccc3o2)c1N [PD 98059, reference compound]
effect on phosphorylation of ERK1 in presence of BDNF ([1]; PD 98059 with BDNF 200 ng/ml): remained unchanged
effect on GDNF-induced phosphorylation of ERK1 ([1]; PD 98059 with GDNF 200 ng/ml): inhibited
effect on NGF-induced phosphorylation of ERK1 ([1]; PD 98059 with NGF 200 ng/ml): inhibited
effect on BDNF-induced phosphorylation of ERK1 and ERK2 ([2]; PD 98059 100 μM 1 h before BDNF 200 ng/ml, epithelial cells): not inhibited
effect on GDNF-induced phosphorylation of ERK1 and ERK2 ([2]; PD 98059 100 μM 1 h before GDNF 200 ng/ml, epithelial cells): prevented
effect on NGF-induced phosphorylation of ERK1 and ERK2 ([2]; PD 98059 100 μM 1 h before NGF 200 ng/ml, epithelial cells): prevented

CO[C@H]1[C@@H](OC)C[C@H](C)[C@@H](OC)C2=CC(=O)C=C(NC(=O)/C(C)=C/C=C\[C@H](OC)[C@@H](OC(N)=O)/C(C)=C/[C@@H]1C)C2=O [herbimycin A, reference compound]
wound gap closed (corneal epithelial cells): 19.2±5.5%
GDNF-dependent tyrosine phosphorylation of Ret (Ret): specifically inhibited
GDNF-dependent phosphorylation of Erk [3]: significantly decreased
GDNF-dependent phosphorylation of FAK [3]: significantly decreased
GDNF-dependent phosphorylation of cRaf [3]: significantly decreased

EGF: growth factor used as positive control at 10 ng/ml
total number of colonies [4]: 58±18
gap in the cell monolayer filled ([5]; 10 ng/ml): 44.6±9%
gap in the cell monolayer filled ([6]; 10 ng/ml): 19.0%±8.6
in vitro wound healing [7]: significant increase

NGF: recombinant human NGF, neurotrophic factor used as comparison / positive control
gap in the cell monolayer filled ([5]; 250 ng/ml): 27%±7.1
activated JNK2 [1]: not induced
phosphorylation of ERK1 and ERK2 [1]: induced
phosphorylation of JNK1 [1]: weakly induced
gap in the cell monolayer filled ([6]; 250 ng/ml): 19.6%±3.1
phosphorylation of ERK1 and ERK2 [2]: increased
phosphorylation of JNK1/2 [2]: not induced

B1: BDNF: recombinant human BDNF, neurotrophic factor used for comparison (protein, UniProt P23560 19-247, looked up)
Neurotrophic factor BDNF …: APMKEANIRGQGGLAYPGVRTHGTLESVNGPKAGSRGLTSLADTFEHVIEELLDEDQKVRPNEENNKDADLYTSRVMLSSQVPLEPPLLFLLEEYKNYLDAANMSMRVRRHSDPARRGELSVCDSISEWVTAADKKTAVDMSGGTVTVLEKVPVSKGQLKQYFYETKCNPMGYTKEGCRGIDKRHWNSQCRTTQSYVRALTMDSKKRIGWRFIRIDTSCVCTLTIKRGR
activated JNK2 [1]: not induced
phosphorylation of ERK1 and ERK2 [1]: did not induce
phosphorylation of JNK1 [1]: weakly induced
phosphorylation of ERK1 and ERK2 [2]: increased
phosphorylation of JNK1/2 [2]: not induced
